The source of these data is patent publication US8748419B2, “Treating obesity with muscarinic receptor M1 antagonists” (priority 2006, dated 2014).

Test [1] is described as follows: Reduction in weight gain of rats on a high fat diet (two-week treatment). It counts as in vivo, Sprague-Dawley rats. The following applies: for % Reduction: treatment minus vehicle % weight gain. The protocol: Reduction in Weight Gain: Three- to four-month-old (475-550 grams) male, Sprague-Dawley rats (individually housed) were used to assess compounds for their ability to prevent weight gain. At the onset of chronic experiments, rats had been maintained (ad libitum access) on a “high fat” diet (BioServ Diet #F3282 or Research Diets #12451) for approximately one month. Individual body weights and water consumptions were recorded three times per week throughout the duration of the experiment. After approximately two weeks of data collection, rats were counter-balanced to produce treatment groups with equivalent mean body weights. Under isofluorane-induced anesthesia, rats were surgically implanted (subscapular, subcutaneous [sc] placement) with osmotic mini-pumps (Alzet 2mL2) containing the appropriate drug concentration (based on mean body weights and calculated durations of delivery). Alternatively, for studies using the oral route of administration, rats were dosed by gavage daily over 14 days at a volume of 3 mL/kg. Data collection was continued under drug treatment for approximately two more weeks. Change in body weight (expressed in grams) was calculated for the treatment interval. In this assay, vehicle-treated rats typically gain approximately 35-40 grams (+9%) over the two-week interval. Treatment effects are presented in Table 3 as % Weight Gain=[(Body Weight at End of Drug Infusion−Baseline Body Weight)/Baseline Body Weight]×100%, for both Vehicle and Treatment groups; as well as % Reduction=(% Weight Gain for Treatment group−% Weight Gain for Vehicle group). Body weights throughout the treatment period are presented in FIGS. 11-15 as the percentage of baseline body weight. Similar superscripts in the Dose column of Table 3 denote values derived from the same experiment (to facilitate comparisons between individual treatments and co-administrations). Statistical analyses were performed using a 1-way ANOVA (analysis of variance) followed by a Bonferroni multiple comparison test with the overall alpha set at 0.05. In Table 3, asterisks (*) denote significant effects compared to vehicle-treated rats, while letters (a or b) denote significant effects compared to rats treated with a single compound (“a” for significance from antidepressant and “b” for significance from telenzepine). In Table 3, one symbol denotes p<0.05, two symbols denote p<0.01 and three symbols denote p<0.001). The symbols used for denoting statistical significance may be different in the corresponding figures.

The nature of test [2]: Appetite suppression: high fat food consumption in fasted rats (4-Hour and 24-Hour Consumption). Format: in vivo, Sprague-Dawley rats. The settings on record: for reduction in effective dose of sibutramine: 30 mg/kg of telenzepine co-administered, effective dose lowered to 1 mg/kg. An excerpt: Appetite Suppression: Three-month-old (300-350 grams) male, Sprague-Dawley rats (individually housed) were used to assess compounds for their appetite suppressant effects. Rats were acclimatized to a “high fat” food diet (BioServ Diet #F3282 or Research Diets #12451) for two weeks prior to testing (access to food and water ad libitum). One day prior to the experiment (at 5:00 PM), food was removed from the cages in order to motivate feeding when the food was returned the following morning (water remained available throughout the experiment). Prior to presentation of the food, rats (n=8-10/dose group) were dosed intraperitoneally (ip) or orally (po) with the compound under investigation, returned to their home cage and immediately given a pre-weighed amount of food. Four hours after administration, the food was removed from the cage, weighed, recorded (4-Hour Consumption) and returned to the rat until the following morning. Twenty-four hours after administration, the remaining food was again weighed and recorded (24-Hour Consumption). Cumulative consumption (expressed in grams) was calculated for both the four and the twenty-four hour intervals. In this assay, vehicle-treated rats typically consume approximately 8 grams over the four-hour interval and approximately 25 grams over the twenty-four-hour interval.
Treatment effects are presented in Table 1 and FIGS. 1-5 (4-Hour Consumption) and Table 2 and FIGS. 6-10 (24-Hour Consumption). The effects are given as both Raw Consumption (in grams ±SEM [1 standard error of the mean]) and as % Reduction in 4-Hour or 24-Hour Consumption=[1-(Consumption following Drug Treatment/Consumption following Vehicle Treatment)]×100%. Similar superscripts in the Dose column of Tables 1 and 2 denote values derived from the same experiment (to facilitate comparisons between individual treatments and co-administrations). Statistical analyses were performed using a 1-way ANOVA (analysis of variance) followed by a Bonferroni multiple comparison test with the overall alpha set at 0.05. In Tables 1 and 2, asterisks (*) denote significant effects compared to vehicle-treated rats, while letters (a or b) denote significant effects compared to rats treated with a single compound (“a” for significance from antidepressant and “b” for significance from telenzepine). In Tables 1 and 2, one symbol denotes p<0.05, two symbols denote p<0.01 and three symbols denote p<0.001). The symbols used for denoting statistical significance may be different in the corresponding figures.

The conditions of test [3]: local microinjection; cited from earlier work.
Where [4] appears, read: 24 h, 10 mg/kg po, experiment d.

Each structure is given as a SMILES string.

On to `CN(C)CCCC1(c2ccc(F)cc2)OCc2cc(C#N)ccc21` (stereo not drawn) [Citalopram, citalopram], for which the “Treatment: % Weight Gain” value in test [1] (15 mg/kg sc, experiment a) is listed as 6.2 ± 1.0%. Also, the “% Reduction” value in test [1] (15 mg/kg sc, experiment a) is given as −2.4%. For the same compound, the “Treatment Consumption” value in test [2] (4 h, 25 mg/kg ip, experiment a) was 5.3 ± 0.72 g/4 Hrs; in test [2] (24 h, 25 mg/kg ip, experiment a), 23.0 ± 0.71 g/24 Hrs. Besides, the “% Reduction in Consumption” value in test [2] (4 h, 25 mg/kg ip, experiment a, 25 mg/kg) was 31%; in test [2] (4 h, 25 mg/kg ip, experiment a, listed as citalopram, 25 mg/kg), 31%; in test [2] (24 h, 25 mg/kg ip, experiment a, 25 mg/kg), 4%; in test [2] (24 h, 25 mg/kg ip, experiment a, listed as citalopram, 25 mg/kg), 4%.
With `CC(C)(N)Cc1ccccc1` [Phentermine, phentermine], in test [1] (4 mg/kg sc, experiment c), the “Treatment: % Weight Gain” value is listed as 4.2 ± 0.6% and the “% Reduction” value was −1.1%.
For the compound `CN[C@H]1CC[C@@H](c2ccc(Cl)c(Cl)c2)c2ccccc21` [Sertraline, sertraline], the “Treatment: % Weight Gain” value in test [1] (5 mg/kg sc) is 7.2 ± 1.2%; in test [1] (10 mg/kg sc) it was 6.0 ± 0.8%; in test [1] (15 mg/kg sc, experiment b), 2.8 ± 0.8%; in test [1] (20 mg/kg sc), 2.8 ± 0.7%. In addition, the “% Reduction” value in test [1] (5 mg/kg sc) is −2.1%; in test [1] (10 mg/kg sc), −3.1%; in test [1] (15 mg/kg sc, experiment b), −6.8%; in test [1] (20 mg/kg sc), −3.5%. Moreover, the “reduction in body weight compared to vehicle treated rats” value in test [1] (15 mg/kg of sertraline alone) was determined as 6.8%. For the same compound, the “Treatment Consumption” value stood at 6.0 ± 0.88 g/4 Hrs in test [2] (4 h, 10 mg/kg ip, experiment a); 5.6 ± 0.73 g/4 Hrs in test [2] (4 h, 30 mg/kg ip, experiment a); 23.5 ± 0.71 g/24 Hrs in test [2] (24 h, 10 mg/kg ip, experiment a); 17.1 ± 1.60 g/24 Hrs in test [2] (24 h, 30 mg/kg ip, experiment a). For the same compound, the “% Reduction in Consumption” value was 21% in test [2] (4 h, 10 mg/kg ip, experiment a, 10 mg/kg); 21% in test [2] (4 h, 10 mg/kg ip, experiment a, listed as sertraline, 10 mg/kg); 27% in test [2] (4 h, 30 mg/kg ip, experiment a, 30 mg/kg); 27% in test [2] (4 h, 30 mg/kg ip, experiment a, listed as sertraline, 30 mg/kg); 2% in test [2] (24 h, 10 mg/kg ip, experiment a, 10 mg/kg); 2% in test [2] (24 h, 10 mg/kg ip, experiment a, listed as sertraline, 10 mg/kg). The “% Reduction in Consumption” value in test [2] (24 h, 30 mg/kg ip, experiment a, 30 mg/kg) came out at 28%; in test [2] (24 h, 30 mg/kg ip, experiment a, listed as sertraline, 30 mg/kg), 28%.
Take `CC(C)CC(N(C)C)C1(c2ccc(Cl)cc2)CCC1` (stereo not drawn) [Sibutramine, sibutramine]: the “Treatment: % Weight Gain” value in test [1] (0.3 mg/kg po, experiment d) is recorded as 4.7 ± 0.5%; in test [1] (3 mg/kg po), −5.7 ± 1.2%. In addition, the “% Reduction” value is listed as −1.7% in test [1] (0.3 mg/kg po, experiment d) and −6.0% in test [1] (3 mg/kg po). Moreover, in test [1] (given alone), the “reduction of weight gain against vehicle treated controls (reduction from baseline)” value is 6%. The “% Reduction in Consumption” value is reported as 0% in test [2] (4 h, 1 mg/kg po, experiment c); 28% in test [2] (4 h, 1 mg/kg po, experiment d); 23% in test [2] (4 h, 3 mg/kg po, experiment c); 54% in test [2] (4 h, 3 mg/kg po, experiment d); 38% in test [2] (4 h, 10 mg/kg po, experiment d); 10% in test [2] (24 h, 1 mg/kg po, experiment c). For the same compound, the “% Reduction in Consumption” value in test [2] (24 h, 1 mg/kg po, experiment d) stood at 16%; in test [2] (24 h, 3 mg/kg po, experiment c) it was 28%; in test [2] (24 h, 3 mg/kg po, experiment d), 38%; in test [2] (setting [4]), 52%. Also, the “Treatment Consumption” value in test [2] (4 h, 1 mg/kg po, experiment c) stood at 10.1 ± 1.24 g/4 Hrs; in test [2] (4 h, 1 mg/kg po, experiment d), 4.9 ± 0.68 g/4 Hrs; in test [2] (4 h, 3 mg/kg po, experiment c) it was 8.0 ± 1.29 g/4 Hrs; in test [2] (4 h, 3 mg/kg po, experiment d), 3.2 ± 0.33 g/4 Hrs; in test [2] (4 h, 10 mg/kg po, experiment d), 4.3 ± 0.61 g/4 Hrs; in test [2] (24 h, 1 mg/kg po, experiment c), 27.4 ± 1.78 g/24 Hrs. The “Treatment Consumption” value was found to be 20.7 ± 1.05 g/24 Hrs in test [2] (24 h, 1 mg/kg po, experiment d); 21.9 ± 1.98 g/24 Hrs in test [2] (24 h, 3 mg/kg po, experiment c); 15.4 ± 1.22 g/24 Hrs in test [2] (24 h, 3 mg/kg po, experiment d); 11.9 ± 1.15 g/24 Hrs in test [2] (setting [4]). Besides, the “reduction in effective dose of sibutramine” value in test [2] (4 hour consumption) is 3 fold; in test [2] (24 hour consumption), 10 fold. In addition, the effect on consumption entry in test [2] (given alone, oral administration required for a significant reduction) is listed as “effective”.
Consider `COc1ccc(C(CN(C)C)C2(O)CCCCC2)cc1` (stereo not drawn) [Venlafaxine, venlafaxine], for which the “reduction in body weight compared to vehicle treated rats” value in test [1] (30 mg/kg of venlafaxine alone) was 0.7%. The “Treatment: % Weight Gain” value in test [1] (30 mg/kg sc, experiment b) came to 7.4 ± 0.5%. The “% Reduction” value in test [1] (30 mg/kg sc, experiment b) is −0.7%. Moreover, the “Treatment Consumption” value in test [2] (4 h, 30 mg/kg ip, experiment b) was determined as 6.1 ± 0.84 g/4 Hrs; in test [2] (24 h, 30 mg/kg ip, experiment b) it was 24.9 ± 1.52 g/24 Hrs. Besides, the “% Reduction in Consumption” value in test [2] (4 h, 30 mg/kg ip, experiment b, 30 mg/kg) is 13%; in test [2] (4 h, 30 mg/kg ip, experiment b, listed as venlafaxine, 30 mg/kg) it was 13%; in test [2] (24 h, 30 mg/kg ip, experiment b, 30 mg/kg) it was 0%; in test [2] (24 h, 30 mg/kg ip, experiment b, listed as venlafaxine, 30 mg/kg), 0%.
For `CN1CCN(CC(=O)N2c3ccccc3C(=O)Nc3cccnc32)CC1` [pirenzepine, 5,11-Dihydro-11-[(4-methyl-1-piperazinyl)acetyl]-6H-pyrido[2,3-b][1,4]benzodiazepin-6-one], the “dopamine efflux in the striatum” value in test [3] was “decreased dopamine efflux”.
